Test results taken from patent publication US11591631B2, “Glucose monitoring method and glucose sensor” (TOYOBO CO., LTD., priority 2017, dated 2023).
Like-named read-outs stand apart in the source and are kept apart here.

How the values were obtained:
[1] = test system: FADGDH GDH-2, SEQ ID No. 2 (SEQ ID No. 1 of JP2013-116102A); assay: Michaelis constant of GDH-2 in aqueous system (DCPIP/PMS, Lineweaver-Burk plot); type: biochemical; conditions: pH 6.5, 37° C., Lineweaver-Burk at 30, 50, 100, 200 mM, read-out: Michaelis constant (Km) for glucose
Experimental: (§1) In the present invention, the activity of glucose dehydrogenase is defined using, as 1 unit (U), the amount of enzyme that reduces 1 micromole of DCPIP per minute in the presence of a substrate according to a method using a reagent having the following formulation.
(§2) 50 mM PIPES buffer (pH: 6.5; containing 0.1% TritonX-100)
(§3) 2 mM 2,5-dichlorophenolindophenol (DCPIP) solution
(§4) First, 3 ml of reaction reagent is pre-warmed at 37° C. for 5 minutes. 0.1 ml of GDH solution is added thereto, and the resulting mixture is gently mixed. Then, the change in absorbance at 600 nm is record for 5 minutes by a spectrophotometer adjusted at 37° C. with water as a control, and the change in absorbance per minute (ΔODTEST) is measured from the straight line portion. In a blind test, a solvent that dissolves GDH is added to the reagent mixture, instead of the GDH solution, and the change in absorbance per minute (ΔODBLANK) is similarly measured. From these values, GDH activity is determined according to the following formula. […] Activity (U/ml)={−(ΔODTEST−ΔODBLANK)×3.0×dilution magnification}/{16.3×0.1×1.0} […]

[2] = test system: modified FADGDH GDH-6, random mutant of FADGDH of SEQ ID No. 5; assay: Michaelis constant of GDH-6 in aqueous system (DCPIP/PMS, Lineweaver-Burk plot); type: biochemical; conditions: pH 6.5, 37° C., Lineweaver-Burk at 30, 50, 100, 200 mM, read-out: Michaelis constant (Km) for glucose
Experimental: as §1, §2, §3, §4

[3] = test system: FADGDH GDH-4, SEQ ID No. 4 (SEQ ID No. 1 of JP2015-146773A); assay: Michaelis constant of GDH-4 in aqueous system (DCPIP/PMS, Lineweaver-Burk plot); type: biochemical; conditions: pH 6.5, 37° C.
Experimental: as §1, §2, §3, §4

[4] = test system: modified FADGDH GDH-5, random mutant of FADGDH of SEQ ID No. 5; assay: Michaelis constant of GDH-5 in aqueous system (DCPIP/PMS, Lineweaver-Burk plot); type: biochemical; conditions: pH 6.5, 37° C., Lineweaver-Burk at 30, 50, 100, 200 mM, read-out: Michaelis constant (Km) for glucose
Experimental: as §1, §2, §3, §4

[5] = test system: FADGDH enzymes of Table 1 (GDH-1 to GDH-4); assay: Km for D-glucose of the enzymes listed in Table 1; type: biochemical; conditions: read-out: Km for D-glucose; range over the enzymes listed in Table 1
Experimental: as §1
First, 3 ml of reaction reagent is pre-warmed at 37° C. for 5 minutes. 0.1 ml of GDH solution is added thereto, and the resulting mixture is gently mixed. Then, the change in absorbance at 600 nm is record for 5 minutes by a spectrophotometer adjusted at 37° C. with water as a control, and the change in absorbance per minute (ΔODTEST) is measured from the straight line portion. In a blind test, a solvent that dissolves GDH is added to the reagent mixture, instead of the GDH solution, and the change in absorbance per minute (ΔODBLANK) is similarly measured. From these values, GDH activity is determined according to the following formula. […] Activity (U/ml)={−(ΔODTEST−ΔODBLANK)×3.0×dilution magnification}/{16.3×0.1×1.0}
GDH-3 is obtained by genetically engineering and expressing GDH having an amino acid sequence of SEQ ID No. 3 (the amino acid sequence represented by SEQ ID No. 1 of JP4649993B) using the Cryptococcus sp. S-2 D11 strain (FERM BP-11482) described in JP5588578B. […]

[6] = test system: FADGDH GDH-3, SEQ ID No. 3 (SEQ ID No. 1 of JP4649993B); assay: Michaelis constant of GDH-3 in aqueous system (DCPIP/PMS, Lineweaver-Burk plot); type: biochemical, Mucor prainii; conditions: pH 6.5, 37° C., Lineweaver-Burk at 30, 50, 100, 200 mM, read-out: Michaelis constant (Km) for glucose
Experimental: as §1, §2, §3, §4

[7] = substrate: OC[C@H]1OC(O)[C@H](O)[C@@H](O)[C@@H]1O; assay: purified protein, by the assay type; conditions: other: pH 6.5, 37° C., aqueous system, Lineweaver-Burk at 30, 50, 100, 200 mM
[8] = substrate: OC1OC[C@@H](O)[C@H](O)[C@H]1O; assay: purified protein, by the assay type; conditions: other: pH 6.5, 37° C., aqueous system, Lineweaver-Burk

## OC[C@H]1OC(O)[C@H](O)[C@@H](O)[C@@H]1O (stereo partly drawn) [D-glucose]
[1]
  Km: 16 mM
[2]
  Km: 82 mM
[3]; Lineweaver-Burk at 30, 50, 100, 200 mM, read-out: Michaelis constant (Km) for glucose
  Km: 14 mM
[4]
  Km: 80 mM
[5]
  Km: 14 to 82 mM
[6]
  Km: 31 mM

## OC1OC[C@@H](O)[C@H](O)[C@H]1O (stereo partly drawn) [D-xylose]
[3]; Lineweaver-Burk, read-out: Michaelis constant (Km) for xylose
  Km: 82 mM

B1: FADGDH GDH-1, SEQ ID No. 1 (encoded by SEQ ID No. 8 of JP527482B) (Aspergillus oryzae) (protein)
chain: MKNTTTYDYIVVGGGTSGLVVANRLSENPDVSVLLLEAGASVFNNPDVTNANGYGLAFGSAIDWQYQSINQSYAGGKQQVLRAGKALGGTSTINGMAYTRAEDVQIDVWQKLGNEGWTWKDLLPYYLKSENLTAPTSSQVAAGAAYNPAVNGKEGPLKVGWSGSLASGNLSVALNRTFQAAGVPWVEDVNGGKMRGFNIYPSTLDVDLNVREDAARAYYFPYDDRKNLHLLENTTANRLFWKNGSAEEAIADGVEITSADGKVTRVHAKKEVIISAGALRSPLILELSGVGNPTILKKNNITPRVDLPTVGENLQDQFNNGMAGEGYGVLAGASTVTYPSISDVFGNETDSIVASLRSQLSDYAAATVKVSNGHMKQEDLERLYQLQFDLIVKDKVPIAEILFHPGGGNAVSSEFWGLLPFARGNIHISSNDPTAPAAINPNYFMFEWDGKSQAGIAKYIRKILRSAPLNKLIAKETKPGLSEIPATAADEKWVEWLKANYRSNFHPVGTAAMMPRSIGGVVDNRLRVYGTSNVRVVDASVLPFQVCGHLVSTLYAVAERASDLIKEDAKSA
[7]
  Km: 68 mM
[8]
  Km: 39 mM
